How the values were obtained:
[1] = pKa of nanoparticle compositions; type: physicochemical
[2] = tested on: LDL-c; assay: LDL levels in LDLr−/− mice after mRNA encoding the LDL receptor; type: in vivo, LDLR knockout mice; settings: Mus musculus; Table 7b; LDLr−/− mice, 0.5 mpk, LDLr; read-out: LDL levels lipid/untreated LDLr−/− mice 0.5 mpk, LDLr
[3] = Lipid clearance: % dose remaining in mouse liver 6 h and 24 h after administration of nanoparticle compositions; type: in vivo, CD-1 mice
Source text: (§1) In contrast, hEPO expression in rats induced by administration of a nanoparticle composition including a compound according to one of formulae (I), (Ia1)-(Ia6), (Ib), (II), (IIa), (III), and (IIIa) was substantially […] than that measured for MC3. […] Table 7c and 7d show additional protein expressions and clearance data from compositions with various compounds disclosed herein as compared to with MC3.

[4] = tested on: Luc expression; assay: ApoE dependence of luciferase expression (ApoE knockout vs. wild-type mice); type: in vivo; settings: 0.5 mpk, 6 h
Source text: FIG. 17 is a pair of graphs showing the ApoE dependence of luciferase (“Luc”) expression following administration of a composition containing Luc mRNA and Compound 4 to mice at a dose 0.5 mpk. The expression following administration of a composition containing Luc mRNA and MC3 is presented for comparison. […] The % change in Luc expression in livers of ApoE knockout vs. wild-type mice (i.e., (WT mean expression-KO mean expression)/WT mean expression]*100%) was 91.9% for Compound 4 and 97.5% for MC3. […] The % change in expression in spleens of ApoE knockout vs. wild-type mice was 4.34% for Compound 4 and 72.2% for MC3. Numbers 1-4 refer to the following: 1: Composition containing Compound 4, administered to ApoE knockout mice; 2: Composition containing Compound 4, administered to wild-type mice; 3: Composition containing MC3, administered to ApoE knockout mice; 4: Composition containing MC3, administered to wild-type mice.

[5] = tested on: Luc expression; assay: Luc expression in CD-1 mice (AUC relative to MC3); type: in vivo; settings: Table 7c
Method: FIG. 15 is a graph summarizing luciferase expression levels at 6 h after administration of nanoparticle compositions containing compounds of the disclosure to CD-1 mice at a dose of 0.5 mpk. Total light flux values were acquired via body luminescent imaging (BLI) 6 h after administration. In this Figure, the numbers 1-7 and 10 refer to the compositions containing Compounds 4-10 and MC3 respectively.
as §1

| pKa ([1]; Table 1, rows without footnote mark) | pKa ([1]; Table 5, hEPO mRNA, 40:20:38.5:1.5 Lipid:DOPE:Chol:PEG-DMG) | % Dose remaining 6 h CD-1 mice ([3]; 6 h, CD-1 mice) [%] | % Dose remaining 24 h CD-1 mice ([3]; 24 h, CD-1 mice) [%] | % Dose Remaining 6 hr ([3]; Table 7c, 6 hr) [%] | % Dose Remaining 24 hr ([3]; Table 7c, 24 hr) [%] | % dose remaining Mouse liver (24 h) ([3]; mouse liver, 24 h) [%] | SMILES | response vs control in vivo at 0.5 mg/kg [2] [%] | % change in Luc expression in livers of ApoE knockout vs. wild-type mice ([4]; FIG. 17 Graph A, liver) [%] | % change in expression in spleens of ApoE knockout vs. wild-type mice ([4]; FIG. 17 Graph B, spleen) [%] | AUC (p/s*h) [5] [p/s*h] |
| --- | --- | --- | --- | --- | --- | --- | --- | --- | --- | --- | --- |
| 5.44 | 5.444 | – | – | – | – | – | CCCCCCCCCCCCN(CCCCCCCCCCCC)CCN(CCCCCCCCCCCC)CCN1CCN(CCN(CCCCCCCCCCCC)CCCCCC(=O)OCCCCC)CC1 [Compound 12, Pentyl 6-((2-(4-(2-((2-(didodecylamino)ethyl)(dodecyl)amino)ethyl)piperazin-1-yl)ethyl)(dodecyl)amino)hexanoate] | – | – | – | – |
| – | – | 88 | 55 | 55.70 | 55.43 | 55 | CCCCCC=CCC=CCCCCCCCCC(CCCCCCCCC=CCC=CCCCCC)OC(=O)CCCN(C)C (centres unmarked) [MC3, heptatriaconta-6,9,28,31-tetraen-19-yl 4-(dimethylamino)butanoate, reference compound] | 55 | 97.5 | 72.2 | 1.42E+11 |

— patent US10195156B2, “Compounds and compositions for intracellular delivery of agents” (ModernaTX, Inc., priority 2015, dated 2019)
